Measurements: the NIST ThermoML archive (doi:10.1021/je700406p)
Numbers after ± are expanded uncertainties.

Assay: wn = mass fraction of the nth substance listed
Conditions: Liquid, Vibrating tube method

CC(C)(N)CO [2-amino-2-methylpropan-1-ol] + O
Conditions | mass density [kg/m3]
323.09 K, 19985 kPa, w1 = 0.4976 | 978 ± 1.3
323.09 K, 20939 kPa, w1 = 0.4976 | 978.4 ± 1.3
323.1 K, 513 kPa, w1 = 0.1997 | 984.2 ± 0.5
323.1 K, 1002 kPa, w1 = 0.4002 | 978 ± 0.9
323.1 K, 1007 kPa, w1 = 0.1997 | 984.4 ± 0.5
323.1 K, 2005 kPa, w1 = 0.1997 | 984.8 ± 0.5
323.1 K, 2023 kPa, w1 = 0.4002 | 978.4 ± 0.9
323.1 K, 3001 kPa, w1 = 0.4002 | 978.9 ± 0.9
323.1 K, 3005 kPa, w1 = 0.1997 | 985.1 ± 0.5
323.1 K, 4001 kPa, w1 = 0.1997 | 985.5 ± 0.5
323.1 K, 4011 kPa, w1 = 0.4002 | 979.2 ± 0.9
323.1 K, 5000 kPa, w1 = 0.1997 | 986 ± 0.5
323.1 K, 5000 kPa, w1 = 0.4002 | 979.7 ± 0.9
323.1 K, 6002 kPa, w1 = 0.4002 | 980 ± 0.9
323.1 K, 6003 kPa, w1 = 0.1997 | 986.3 ± 0.5
323.1 K, 6999 kPa, w1 = 0.4002 | 980.4 ± 0.9
323.1 K, 7003 kPa, w1 = 0.1997 | 986.8 ± 0.5
323.1 K, 7990 kPa, w1 = 0.4002 | 980.8 ± 0.9
323.1 K, 8001 kPa, w1 = 0.1997 | 987.1 ± 0.5
323.1 K, 9002 kPa, w1 = 0.4002 | 981.2 ± 0.9
323.1 K, 9013 kPa, w1 = 0.1997 | 987.5 ± 0.5
323.1 K, 9990 kPa, w1 = 0.4002 | 981.6 ± 0.9
323.1 K, 10002 kPa, w1 = 0.1997 | 987.9 ± 0.5
323.1 K, 10992 kPa, w1 = 0.4002 | 982 ± 0.9
323.1 K, 11001 kPa, w1 = 0.1997 | 988.3 ± 0.5
323.1 K, 11996 kPa, w1 = 0.4002 | 982.5 ± 0.9
323.1 K, 12004 kPa, w1 = 0.1997 | 988.7 ± 0.5
323.1 K, 12990 kPa, w1 = 0.4002 | 982.8 ± 0.9
323.1 K, 13009 kPa, w1 = 0.1997 | 989 ± 0.5
323.1 K, 13994 kPa, w1 = 0.4002 | 983.2 ± 0.9
323.1 K, 13999 kPa, w1 = 0.1997 | 989.4 ± 0.5
323.1 K, 14992 kPa, w1 = 0.4002 | 983.6 ± 0.9
323.1 K, 15001 kPa, w1 = 0.1997 | 989.8 ± 0.5
323.1 K, 15995 kPa, w1 = 0.4002 | 984 ± 0.9
323.1 K, 16002 kPa, w1 = 0.1997 | 990.2 ± 0.5
323.1 K, 16986 kPa, w1 = 0.4002 | 984.4 ± 0.9
323.1 K, 17001 kPa, w1 = 0.1997 | 990.6 ± 0.5
323.1 K, 17993 kPa, w1 = 0.4002 | 984.8 ± 0.9
323.1 K, 18004 kPa, w1 = 0.1997 | 991 ± 0.5
323.1 K, 18995 kPa, w1 = 0.4002 | 985.1 ± 0.9
323.1 K, 19000 kPa, w1 = 0.1997 | 991.4 ± 0.5
323.1 K, 19992 kPa, w1 = 0.4002 | 985.5 ± 0.9
323.1 K, 20030 kPa, w1 = 0.1997 | 991.7 ± 0.5
323.1 K, 21005 kPa, w1 = 0.1997 | 992.1 ± 0.5
323.1 K, 21297 kPa, w1 = 0.4002 | 986 ± 0.9
323.1 K, 22004 kPa, w1 = 0.1997 | 992.5 ± 0.5
323.1 K, 22998 kPa, w1 = 0.1997 | 992.9 ± 0.5
323.1 K, 24004 kPa, w1 = 0.1997 | 993.3 ± 0.5
332.01 K, 1005 kPa, w1 = 0.2821 | 976.1 ± 0.6
332.01 K, 2004 kPa, w1 = 0.2821 | 976.5 ± 0.6
332.01 K, 2997 kPa, w1 = 0.2821 | 977 ± 0.6
332.01 K, 4002 kPa, w1 = 0.2821 | 977.4 ± 0.6
332.01 K, 5002 kPa, w1 = 0.2821 | 977.8 ± 0.6
332.01 K, 5997 kPa, w1 = 0.2821 | 978.2 ± 0.6
332.01 K, 6999 kPa, w1 = 0.2821 | 978.6 ± 0.6
332.01 K, 7996 kPa, w1 = 0.2821 | 979 ± 0.6
332.01 K, 8992 kPa, w1 = 0.2821 | 979.4 ± 0.6
332.01 K, 9994 kPa, w1 = 0.2821 | 979.8 ± 0.6
332.01 K, 11040 kPa, w1 = 0.2821 | 980.2 ± 0.6
332.01 K, 11992 kPa, w1 = 0.2821 | 980.6 ± 0.6
332.01 K, 12990 kPa, w1 = 0.2821 | 981 ± 0.6
332.01 K, 13989 kPa, w1 = 0.2821 | 981.4 ± 0.6
332.01 K, 14989 kPa, w1 = 0.2821 | 981.8 ± 0.6
332.01 K, 15990 kPa, w1 = 0.2821 | 982.2 ± 0.6
332.01 K, 17000 kPa, w1 = 0.2821 | 982.5 ± 0.6
332.01 K, 17987 kPa, w1 = 0.2821 | 982.9 ± 0.6
332.01 K, 18991 kPa, w1 = 0.2821 | 983.3 ± 0.6
332.01 K, 19984 kPa, w1 = 0.2821 | 983.7 ± 0.6
332.01 K, 20986 kPa, w1 = 0.2821 | 984.1 ± 0.6
332.99 K, 503 kPa, w1 = 0.1997 | 978.2 ± 0.5
332.99 K, 1000 kPa, w1 = 0.1997 | 978.5 ± 0.5
332.99 K, 2000 kPa, w1 = 0.1997 | 978.7 ± 0.5
332.99 K, 3000 kPa, w1 = 0.1997 | 979.2 ± 0.5
332.99 K, 4000 kPa, w1 = 0.1997 | 979.6 ± 0.5
332.99 K, 5001 kPa, w1 = 0.1997 | 979.9 ± 0.5
332.99 K, 6000 kPa, w1 = 0.1997 | 980.4 ± 0.5
332.99 K, 7001 kPa, w1 = 0.1997 | 980.8 ± 0.5
332.99 K, 8001 kPa, w1 = 0.1997 | 981.2 ± 0.5
332.99 K, 9009 kPa, w1 = 0.1997 | 981.5 ± 0.5
332.99 K, 10003 kPa, w1 = 0.1997 | 982 ± 0.5
332.99 K, 11001 kPa, w1 = 0.1997 | 982.3 ± 0.5
332.99 K, 12000 kPa, w1 = 0.1997 | 982.8 ± 0.5
332.99 K, 13000 kPa, w1 = 0.1997 | 983.2 ± 0.5
332.99 K, 14000 kPa, w1 = 0.1997 | 983.6 ± 0.5
332.99 K, 14999 kPa, w1 = 0.1997 | 984 ± 0.5
332.99 K, 16001 kPa, w1 = 0.1997 | 984.3 ± 0.5
332.99 K, 17001 kPa, w1 = 0.1997 | 984.8 ± 0.5
332.99 K, 18006 kPa, w1 = 0.1997 | 985.2 ± 0.5
332.99 K, 19001 kPa, w1 = 0.1997 | 985.5 ± 0.5
332.99 K, 20029 kPa, w1 = 0.1997 | 985.9 ± 0.5
332.99 K, 21005 kPa, w1 = 0.1997 | 986.3 ± 0.5
332.99 K, 22004 kPa, w1 = 0.1997 | 986.7 ± 0.5
332.99 K, 23000 kPa, w1 = 0.1997 | 987 ± 0.5
332.99 K, 24008 kPa, w1 = 0.1997 | 987.4 ± 0.5
333.04 K, 1029 kPa, w1 = 0.4976 | 961.9 ± 1.2
333.04 K, 1994 kPa, w1 = 0.4976 | 962.4 ± 1.2
333.04 K, 3005 kPa, w1 = 0.4976 | 962.8 ± 1.2
333.04 K, 4012 kPa, w1 = 0.4976 | 963.3 ± 1.2
333.04 K, 4995 kPa, w1 = 0.4976 | 963.7 ± 1.3
333.04 K, 5995 kPa, w1 = 0.4976 | 964.1 ± 1.3
333.04 K, 7056 kPa, w1 = 0.4976 | 964.6 ± 1.3
333.04 K, 7994 kPa, w1 = 0.4976 | 965 ± 1.3
333.04 K, 8994 kPa, w1 = 0.4976 | 965.5 ± 1.3
333.04 K, 9997 kPa, w1 = 0.4976 | 965.9 ± 1.3
333.04 K, 10996 kPa, w1 = 0.4976 | 966.3 ± 1.3
333.04 K, 11991 kPa, w1 = 0.4976 | 966.7 ± 1.3
333.04 K, 12988 kPa, w1 = 0.4976 | 967.2 ± 1.3
333.04 K, 13992 kPa, w1 = 0.4976 | 967.6 ± 1.3
333.04 K, 14999 kPa, w1 = 0.4976 | 968 ± 1.3
333.04 K, 15982 kPa, w1 = 0.4976 | 968.4 ± 1.3
333.04 K, 16996 kPa, w1 = 0.4976 | 968.9 ± 1.3
333.04 K, 17988 kPa, w1 = 0.4976 | 969.3 ± 1.3
333.04 K, 18986 kPa, w1 = 0.4976 | 969.7 ± 1.3
333.04 K, 19987 kPa, w1 = 0.4976 | 970.1 ± 1.3
333.04 K, 21093 kPa, w1 = 0.4976 | 970.6 ± 1.3
333.05 K, 1028 kPa, w1 = 0.4002 | 970.4 ± 0.9
333.05 K, 1998 kPa, w1 = 0.4002 | 970.8 ± 0.9
333.05 K, 3001 kPa, w1 = 0.4002 | 971.2 ± 0.9
333.05 K, 4010 kPa, w1 = 0.4002 | 971.6 ± 0.9
333.05 K, 5003 kPa, w1 = 0.4002 | 972.1 ± 0.9
333.05 K, 5997 kPa, w1 = 0.4002 | 972.5 ± 0.9
333.05 K, 7000 kPa, w1 = 0.4002 | 972.9 ± 0.9
333.05 K, 8010 kPa, w1 = 0.4002 | 973.3 ± 0.9
333.05 K, 8996 kPa, w1 = 0.4002 | 973.7 ± 0.9
333.05 K, 9998 kPa, w1 = 0.4002 | 974.2 ± 0.9
333.05 K, 10998 kPa, w1 = 0.4002 | 974.6 ± 0.9
333.05 K, 12011 kPa, w1 = 0.4002 | 975 ± 0.9
333.05 K, 13000 kPa, w1 = 0.4002 | 975.4 ± 0.9
333.05 K, 13987 kPa, w1 = 0.4002 | 975.8 ± 0.9
